From patent publication US11279733B2, “Peptide antibiotics” (priority 2017, dated 2022)
In brackets after ≈: the same amount, converted by molar mass. Read-outs that look alike come from different tables or passages of the source. Positions of bridges follow the written chain, without caps; N, C: chain ends. Non-standard residues stand in square brackets, D forms with d. Residues, ends and D or L forms follow the SMILES beside them. *: point of attachment. Decanoyl(3R-OH) = CCCCCCC[C@@H](O)CC(=O)*; dBip = N[C@H](Cc1ccc(-c2ccccc2)cc1)C(=O)O; dDab = NCC[C@@H](N)C(=O)O; Dab = NCC[C@H](N)C(=O)O; Dap = NC[C@H](N)C(=O)O

How the values were obtained:
[1] = tested on: K. pneumoniae GN_106, PmxR; details: GN 106, PmxR
Outline: (§1)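 Mid-log cultures grown in Mueller Hinton broth at 37° C were tested by 2-fold broth microdilution at 5×10^5 CFU/mL final. Compounds were dissolved in water and tested over a final range of 32 to 0.015 μg/mL.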

[2] = tested on: K. pneumoniae GN_102 PmxR; details: GN 102 PmxR
Outline: as §1

[3] = tested on: K. pneumoniae ATCC BAA-2146, NDM-1 pos; details: ATCC BAA-2146
Outline: as §1

[4] = tested on: K. pneumoniae ATCC 700603, MDR; details: ATCC 700603
Outline: as §1

[5] = tested on: P. aeruginosa ATCC 27853; details: ATCC 27853
Outline: as §1

[6] = tested on: P. aeruginosa GN_105, PmxR; details: GN 105, PmxR
Outline: as §1

[7] = tested on: P. aeruginosa GN_043, PmxR
Outline: as §1

[8] = tested on: K. pneumoniae ATCC 13883; details: ATCC 13883
Outline: as §1

[9] = tested on: E. coli ATCC 25922; details: ATCC 25922
Outline: as §1

[10] = tested on: A. baumannii GN_093 PmxR; details: GN 093 PmxR
Outline: as §1

[11] = tested on: S. aureus ATCC 25923, MSSA; details: ATCC 25923
Outline: as §1

[12] = tested on: A. baumannii ATCC 19606; details: ATCC 19606
Outline: as §1

[13] = in vitro; details: human
Outline: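 HK2 cells were seeded at 2000 per well in DMEM/F12 with 10% FBS and left to attach for 24 h at 37 °C, 5% CO2. They were then exposed for 24 h to 3-fold peptide dilutions starting from 600 μM solutions in quadruplicate. LDH release was read at 450 nm, and CC50 was fitted from dose-response curves.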

Compound | MIC K. pneumoniae GN_106, PmxR [1] | MIC K. pneumoniae GN_102 PmxR [2] | MIC K. pneumoniae ATCC BAA-2146, NDM-1 pos [3] | MIC K. pneumoniae ATCC 700603, MDR [4] | MIC P. aeruginosa ATCC 27853 [5] | MIC P. aeruginosa GN_105, PmxR [6] | MIC P. aeruginosa GN_043, PmxR ([7]; P. aeruginosa GN_043, PmxR) | MIC K. pneumoniae ATCC 13883 [8] | MIC E. coli ATCC 25922 [9] | MIC A. baumannii GN_093 PmxR [10] | MIC S. aureus ATCC 25923, MSSA [11] | MIC A. baumannii ATCC 19606 [12] | CC50 at 24 h [13] | MIC P. aeruginosa GN_043, PmxR ([7]; polymyxin-resistant)
CCCCCCC[C@@H](O)CC(=O)N[C@H](CCN)C(=O)N[C@H]1CCNC(=O)[C@H](CC(C)C)NC(=O)[C@H](CCN)NC(=O)[C@H](CCN)NC(=O)[C@H](CC(C)C)NC(=O)[C@@H](Cc2ccc(-c3ccccc3)cc2)NC(=O)[C@H](CCN)NC1=O [compound 5010, 3(R)OH-nC9CO-D-Dab-cyc[L-Dab-L-Dab-D-Bip-L-Leu-L-Dab-L-Dab-L-Leu]] ({Decanoyl(3R-OH)}-[dDab][Dab][Dab][dBip]L[Dab][Dab]L; lactam 2-C) | 2 µg/mL (≈ 1.78 µM) | 4 µg/mL (≈ 3.57 µM) | 4 µg/mL (≈ 3.57 µM) | 4 µg/mL (≈ 3.57 µM) | 4 µg/mL (≈ 3.57 µM) | 2 µg/mL (≈ 1.78 µM) | 2 µg/mL (≈ 1.78 µM) | 2 µg/mL (≈ 1.78 µM) | 2 µg/mL (≈ 1.78 µM) | 4 µg/mL (≈ 3.57 µM) | 2 µg/mL (≈ 1.78 µM) | 4 µg/mL (≈ 3.57 µM) | 75 µM | –
CCCCCCC[C@@H](O)CC(=O)N[C@H](CCN)C(=O)N[C@H]1CCNC(=O)[C@H](Cc2ccccc2)NC(=O)[C@H](CN)NC(=O)[C@H](CCN)NC(=O)[C@H](CC(C)C)NC(=O)[C@@H](Cc2ccc(-c3ccccc3)cc2)NC(=O)[C@H](CCN)NC1=O [compound 5384, 3(R)OH-nC9CO-D-Dab-cyc[L-Dab-L-Dab-D-Bip-L-Leu-L-Dab-L-Dap-L-Phe]] ({Decanoyl(3R-OH)}-[dDab][Dab][Dab][dBip]L[Dab][Dap]F; lactam 2-C) | 8 µg/mL (≈ 7.01 µM) | 16 µg/mL (≈ 14 µM) | 4 µg/mL (≈ 3.51 µM) | 8 µg/mL (≈ 7.01 µM) | 4 µg/mL (≈ 3.51 µM) | 4 µg/mL (≈ 3.51 µM) | – | 4 µg/mL (≈ 3.51 µM) | 4 µg/mL (≈ 3.51 µM) | 4 µg/mL (≈ 3.51 µM) | 4 µg/mL (≈ 3.51 µM) | 8 µg/mL (≈ 7.01 µM) | 24 µM | 4 µg/mL (≈ 3.51 µM)
CCCCCCC[C@@H](O)CC(=O)N[C@H](CCN)C(=O)N[C@H]1CCNC(=O)[C@H](Cc2ccccc2)NC(=O)[C@H](CN)NC(=O)[C@H](CCN)NC(=O)[C@H](CC(C)C)NC(=O)[C@@H](Cc2ccccc2)NC(=O)[C@H](CCN)NC1=O [compound 5385, 3(R)OH-nC9CO-D-Dab-cyc[L-Dab-L-Dab-D-Phe-L-Leu-L-Dab-L-Dap-L-Phe]] ({Decanoyl(3R-OH)}-[dDab][Dab][Dab][dF]L[Dab][Dap]F; lactam 2-C) | 16 µg/mL (≈ 15 µM) | 8 µg/mL (≈ 7.52 µM) | 4 µg/mL (≈ 3.76 µM) | 8 µg/mL (≈ 7.52 µM) | 2 µg/mL (≈ 1.88 µM) | 2 µg/mL (≈ 1.88 µM) | – | 4 µg/mL (≈ 3.76 µM) | 4 µg/mL (≈ 3.76 µM) | 16 µg/mL (≈ 15 µM) | 8 µg/mL (≈ 7.52 µM) | 8 µg/mL (≈ 7.52 µM) | 41 µM | 2 µg/mL (≈ 1.88 µM)
